Usually IC50 stands for the concentration that inhibits the measured activity by half.

One experiment deals with CDK13 (Homo sapiens (Human), UniProt Q14004). Kind of experiment: LANCE Ultra kinase assay, CDK13. The experiment is classed as biochemical. As to conditions: 30 nM enzyme, 60 min pre-incubation, ULight-4E-BP1 150 nM; read-out: CDK13 IC50. How it is done:
(§1) The inhibitory activities of the test compound on the kinases were evaluated by LANCE Ultra assay, which was used for detecting ATP-dependent phosphorylation of a ULight-4E-BP1 (Thr37/Thr46) substrate peptide (150 nM). In short, enzymatic reactions were performed in a reaction buffer (25 mM HEPES (pH 7.5), 10 mM MgCl2, 0.01% BSA, 0.01% Tween 20, and 1 mM DTT). The assay was performed in a 384-well plate (6 μL). A final concentration of an ATP substrate was […], and a final concentration of the ULight-4E-BP1 (Thr37/Thr46) substrate peptide was 150 nM. A final concentration of CDK9, CDK12, or CDK13 was 0.3, 30, or 30 nM, respectively. Pre-incubation of the compound and the enzyme was performed at room temperature for 60 min. The reaction was stopped by adding 10 mM EDTA and 0.15 nM Eu-labeled anti-phospho-eIF4E-binding protein 1 (Thr37/46) antibody in LANCE detection buffer after incubation at room temperature for 15, 60, or 90 min. Time-resolved fluorescence (excitation, 320 nm; emission donor, 615 nm; emission acceptor, 665 nm) was monitored using an EnVision spectrophotometer (PerkinElmer). Readings were computed as (acceptor count/donor count)×1000. IC50 values were derived by fitting a sigmoidal dose-response curve to a plot of assay readouts of inhibitor concentrations. All fittings were computed using program Prism 5.03 (GraphPad Software, San Diego, CA).
(Time-resolved FRET reads energy transfer from a long-lived donor to a nearby acceptor.)

In a further experiment the target is CDK12 (Homo sapiens (Human), UniProt Q9NYV4). Kind of experiment: LANCE Ultra kinase assay, CDK12. The experiment is classed as biochemical. The following applies: 30 nM enzyme, 60 min pre-incubation, ULight-4E-BP1 150 nM; read-out: CDK12 IC50. How it is done: as §1
Sequence of CDK12 (Q9NYV4 whole entry): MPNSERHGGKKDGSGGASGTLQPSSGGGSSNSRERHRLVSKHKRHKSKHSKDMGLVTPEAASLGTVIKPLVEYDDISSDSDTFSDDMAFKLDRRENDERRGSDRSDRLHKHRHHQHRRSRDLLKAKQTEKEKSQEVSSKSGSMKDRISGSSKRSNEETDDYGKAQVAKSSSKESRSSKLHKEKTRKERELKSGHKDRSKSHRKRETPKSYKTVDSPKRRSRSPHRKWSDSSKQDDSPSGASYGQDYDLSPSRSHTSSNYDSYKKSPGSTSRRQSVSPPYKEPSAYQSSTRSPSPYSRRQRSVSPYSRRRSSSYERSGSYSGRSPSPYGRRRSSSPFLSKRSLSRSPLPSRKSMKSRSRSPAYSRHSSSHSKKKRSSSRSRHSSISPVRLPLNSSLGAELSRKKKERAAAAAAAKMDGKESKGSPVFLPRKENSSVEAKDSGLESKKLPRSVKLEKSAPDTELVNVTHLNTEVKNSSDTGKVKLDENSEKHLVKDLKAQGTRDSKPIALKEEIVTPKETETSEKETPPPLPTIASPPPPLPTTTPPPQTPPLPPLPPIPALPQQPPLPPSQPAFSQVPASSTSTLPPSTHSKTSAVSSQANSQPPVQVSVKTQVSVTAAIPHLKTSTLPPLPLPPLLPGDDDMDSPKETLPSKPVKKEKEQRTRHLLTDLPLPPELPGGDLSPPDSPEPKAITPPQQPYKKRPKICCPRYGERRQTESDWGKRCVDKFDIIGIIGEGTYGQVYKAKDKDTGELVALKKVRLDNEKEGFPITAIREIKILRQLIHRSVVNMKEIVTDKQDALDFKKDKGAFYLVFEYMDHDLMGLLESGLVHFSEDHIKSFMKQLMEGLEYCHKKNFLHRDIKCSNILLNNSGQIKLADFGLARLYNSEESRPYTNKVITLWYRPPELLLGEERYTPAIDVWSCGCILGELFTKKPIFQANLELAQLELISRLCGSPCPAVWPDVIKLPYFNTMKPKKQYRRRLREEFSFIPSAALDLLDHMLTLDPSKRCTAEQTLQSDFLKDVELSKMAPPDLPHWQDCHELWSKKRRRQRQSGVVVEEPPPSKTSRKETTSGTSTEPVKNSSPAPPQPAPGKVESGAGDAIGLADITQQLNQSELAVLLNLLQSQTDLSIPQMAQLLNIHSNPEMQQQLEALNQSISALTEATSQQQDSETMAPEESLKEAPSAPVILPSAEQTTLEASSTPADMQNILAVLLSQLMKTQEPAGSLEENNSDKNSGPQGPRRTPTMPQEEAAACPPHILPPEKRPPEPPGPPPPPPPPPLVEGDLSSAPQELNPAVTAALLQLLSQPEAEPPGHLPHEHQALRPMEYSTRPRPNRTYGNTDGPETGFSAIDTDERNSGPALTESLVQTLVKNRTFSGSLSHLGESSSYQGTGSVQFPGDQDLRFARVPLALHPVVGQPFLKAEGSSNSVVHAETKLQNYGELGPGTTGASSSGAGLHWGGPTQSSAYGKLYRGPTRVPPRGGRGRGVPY
Sequence of CDK12 (O75909 whole entry partner): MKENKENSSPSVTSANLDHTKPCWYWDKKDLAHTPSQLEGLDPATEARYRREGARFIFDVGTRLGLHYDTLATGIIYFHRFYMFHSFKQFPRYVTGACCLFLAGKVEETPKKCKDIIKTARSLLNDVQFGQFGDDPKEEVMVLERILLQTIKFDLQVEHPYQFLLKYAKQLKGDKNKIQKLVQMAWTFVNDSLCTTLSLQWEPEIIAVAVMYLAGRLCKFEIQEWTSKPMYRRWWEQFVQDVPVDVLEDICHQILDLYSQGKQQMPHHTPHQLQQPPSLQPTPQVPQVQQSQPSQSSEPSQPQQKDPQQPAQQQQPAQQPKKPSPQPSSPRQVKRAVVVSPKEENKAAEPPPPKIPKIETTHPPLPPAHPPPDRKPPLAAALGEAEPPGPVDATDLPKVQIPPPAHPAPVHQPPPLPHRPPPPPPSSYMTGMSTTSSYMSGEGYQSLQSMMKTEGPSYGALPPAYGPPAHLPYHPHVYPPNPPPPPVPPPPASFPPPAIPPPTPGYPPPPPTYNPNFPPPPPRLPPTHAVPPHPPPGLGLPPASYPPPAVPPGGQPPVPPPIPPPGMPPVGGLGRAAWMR

Sequence of CDK13 (Q14004 whole entry, looked up): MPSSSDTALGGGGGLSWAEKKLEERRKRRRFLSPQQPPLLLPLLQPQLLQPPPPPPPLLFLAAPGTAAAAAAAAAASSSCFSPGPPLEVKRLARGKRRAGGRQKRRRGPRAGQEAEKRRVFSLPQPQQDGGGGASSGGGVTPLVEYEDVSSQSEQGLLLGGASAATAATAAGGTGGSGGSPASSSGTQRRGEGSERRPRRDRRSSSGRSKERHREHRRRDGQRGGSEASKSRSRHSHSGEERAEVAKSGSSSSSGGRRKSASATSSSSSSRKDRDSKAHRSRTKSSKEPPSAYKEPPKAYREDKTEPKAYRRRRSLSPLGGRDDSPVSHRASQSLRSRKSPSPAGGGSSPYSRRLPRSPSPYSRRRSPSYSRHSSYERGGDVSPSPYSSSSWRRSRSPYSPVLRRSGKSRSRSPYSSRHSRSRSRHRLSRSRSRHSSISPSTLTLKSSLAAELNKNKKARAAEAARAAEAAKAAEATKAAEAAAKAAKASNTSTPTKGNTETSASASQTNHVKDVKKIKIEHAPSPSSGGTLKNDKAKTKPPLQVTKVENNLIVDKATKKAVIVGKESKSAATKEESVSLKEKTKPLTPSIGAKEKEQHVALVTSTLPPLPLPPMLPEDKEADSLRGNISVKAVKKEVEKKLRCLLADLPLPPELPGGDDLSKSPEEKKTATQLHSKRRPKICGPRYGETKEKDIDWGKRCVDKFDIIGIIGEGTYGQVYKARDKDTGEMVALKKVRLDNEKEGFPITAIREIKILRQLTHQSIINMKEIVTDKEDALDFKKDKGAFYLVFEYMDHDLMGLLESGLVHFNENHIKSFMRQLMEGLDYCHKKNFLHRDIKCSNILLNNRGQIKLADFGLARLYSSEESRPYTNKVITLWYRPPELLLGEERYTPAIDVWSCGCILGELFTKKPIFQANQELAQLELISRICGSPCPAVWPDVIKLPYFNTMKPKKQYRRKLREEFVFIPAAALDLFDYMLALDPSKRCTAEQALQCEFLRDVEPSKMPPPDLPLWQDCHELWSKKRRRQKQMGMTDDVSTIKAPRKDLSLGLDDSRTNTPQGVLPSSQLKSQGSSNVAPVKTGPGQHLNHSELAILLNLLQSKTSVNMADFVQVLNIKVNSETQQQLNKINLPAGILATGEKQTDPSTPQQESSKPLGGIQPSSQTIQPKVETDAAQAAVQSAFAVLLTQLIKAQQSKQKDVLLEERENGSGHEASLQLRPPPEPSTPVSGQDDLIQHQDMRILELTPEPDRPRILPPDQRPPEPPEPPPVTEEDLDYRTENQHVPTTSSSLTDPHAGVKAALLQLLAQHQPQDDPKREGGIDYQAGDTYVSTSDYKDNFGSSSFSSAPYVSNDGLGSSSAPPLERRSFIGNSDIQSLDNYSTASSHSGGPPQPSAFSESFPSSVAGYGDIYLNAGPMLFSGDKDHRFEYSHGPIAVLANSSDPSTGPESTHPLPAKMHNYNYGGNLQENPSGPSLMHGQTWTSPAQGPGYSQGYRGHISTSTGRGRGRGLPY
Sequence of CDK13 (O75909 whole entry partner, looked up): as the sequence (O75909 whole entry partner) above

With `C=CC(=O)Nc1cc(N(C(=O)NC2CC2)[C@H]2CC[C@H](Nc3ccc(C#N)cn3)CC2)ccc1N1CCN(C)[C@@H](C)C1` [YJZ9173, N-(5-(1-((1r,4S)-4-((5-cyanopyridin-2-yl)amino)cyclohexyl)-3-cyclopropylureido)-2-((S)-3,4-dimethylpiperazin-1-yl)phenyl)acrylamide], the IC50 on CDK13 and at CDK12 was 50 to 500 nM each time.
Turning to `C=CC(=O)Nc1cc(N(C(=O)NCc2ccccc2)[C@H]2CC[C@H](Nc3ccc(C#N)cn3)CC2)cnc1N1CCN(C)[C@@H](C)C1` [YJZ9171, N-(5-(3-benzyl-1-((1r,4S)-4-((5-cyanopyridin-2-yl)amino)cyclohexyl)ureido)-2-((S)-3,4-dimethylpiperazin-1-yl)pyridin-3-yl)acrylamide], the half-maximal inhibitory concentration (IC50) was 15 to 50 nM at CDK13 and below 15 nM at CDK12.
As for `C=CC(=O)Nc1cc(N(C(=O)NCc2ccccc2Cl)[C@H]2CC[C@H](Nc3ccc(C#N)cn3)CC2)ccc1N1CCN(C)[C@@H](C)C1` [YJZ1060, N-(5-(3-(2-chlorobenzyl)-1-((1r,4S)-4-((5-cyanopyridin-2-yl)amino)cyclohexyl)ureido)-2-((S)-3,4-dimethylpiperazin-1-yl)phenyl)acrylamide], the half-maximal inhibitory concentration (IC50) at CDK13 and at CDK12 was below 15 nM in each case.
As for `C=C(F)C(=O)Nc1cc(N(C(=O)NCc2ccccc2)[C@H]2CC[C@H](Nc3ccc(C#N)cn3)CC2)ccc1N1CCN(C)[C@@H](C)C1` [YJZ1072, N-(5-(3-benzyl-1-((1r,4S)-4-((5-cyanopyridin-2-yl)amino)cyclohexyl)ureido)-2-((S)-3,4-dimethylpiperazin-1-yl)phenyl)-2-fluoroacrylamide], the values for the IC50 at CDK13 and at CDK12 were 15 to 50 nM and 50 to 500 nM, respectively.
Turning to `C=CC(=O)Nc1cc(N(C(=O)NCc2ccc(F)cc2)[C@H]2CC[C@H](Nc3ccc(C#N)cn3)CC2)ccc1N1CCN(C)[C@@H](C)C1` [YJZ9166, N-(5-(1-((1r,4S)-4-((5-cyanopyridin-2-yl)amino)cyclohexyl)-3-(4-fluorobenzyl)ureido)-2-((S)-3,4-dimethylpiperazin-1-yl)phenyl)acrylamide], the 50% inhibitory concentration (IC50) at CDK13 and on CDK12 was 15 to 50 nM each time.
For `C=CC(=O)Nc1cc(N(C(=O)NCc2cocn2)[C@H]2CC[C@H](Nc3ccc(C#N)cn3)CC2)ccc1N1CCN(C)[C@@H](C)C1` [YJZ1063, N-(5-(1-((1r,4S)-4-((5-cyanopyridin-2-yl)amino)cyclohexyl)-3-(oxazol-4-ylmethyl)ureido)-2-((S)-3,4-dimethylpiperazin-1-yl)phenyl)acrylamide], the IC50 on CDK13 and at CDK12 was 50 to 500 nM throughout.
With `C=CC(=O)Nc1cc(N(C(=O)NCc2cnn(C)c2)[C@H]2CC[C@H](Nc3ccc(C#N)cn3)CC2)ccc1N1CCN(C)[C@@H](C)C1` [YJZ1033, N-(5-(1-((1r,4S)-4-((5-cyanopyridin-2-yl)amino)cyclohexyl)-3-((1-methyl-1H-pyrazol-4-yl)methyl)ureido)-2-((S)-3,4-dimethylpiperazin-1-yl)phenyl)acrylamide], the 50% inhibitory concentration (IC50) was 50 to 500 nM on CDK13 and above 500 nM on CDK12.
Regarding `C=CC(=O)Nc1cc(N(C(=O)NCc2ccccc2)[C@H]2CC[C@H](Nc3ccc(Cl)cn3)CC2)ccc1N1CCN(C)[C@@H](C)C1` [YJZ1070, N-(5-(3-benzyl-1-((1r,4S)-4-((5-chloropyridin-2-yl)amino)cyclohexyl)ureido)-2-((S)-3,4-dimethylpiperazin-1-yl)phenyl)acrylamide], the IC50 on CDK13 and at CDK12 was 15 to 50 nM in each case.
For the compound `C=CC(=O)Nc1cc(N(C(=O)NCc2ccccc2F)[C@H]2CC[C@H](Nc3ccc(C#N)cn3)CC2)ccc1N1CCN(C)[C@@H](C)C1` [YJZ9179, N-(5-(1-((1r,4S)-4-((5-cyanopyridin-2-yl)amino)cyclohexyl)-3-(2-fluorobenzyl)ureido)-2-((S)-3,4-dimethylpiperazin-1-yl)phenyl)acrylamide], the concentration for half-maximal inhibition (IC50) at CDK13 is below 15 nM; on CDK12, 15 to 50 nM.
As to `C=CC(=O)Nc1cc(N(C(=O)NCc2ccccc2)[C@H]2CC[C@H](Nc3ccc(C#N)cn3)CC2)ccc1Br` [YJZ6048, N-(5-(3-benzyl-1-((1r,4r)-4-((5-cyanopyridin-2-yl)amino)cyclohexyl)ureido)-2-bromophenyl)acrylamide], the IC50 at CDK13 is below 15 nM; at CDK12, 15 to 50 nM.
Take `C=CC(=O)Nc1cc(N(C(=O)NCC(F)(F)F)[C@H]2CC[C@H](Nc3ccc(C#N)cn3)CC2)ccc1N1CCN(C)[C@@H](C)C1` [YJZ1065, N-(5-(1-((1r,4S)-4-((5-cyanopyridin-2-yl)amino)cyclohexyl)-3-(2,2,2-trifluoroethyl)ureido)-2-((S)-3,4-dimethylpiperazin-1-yl)phenyl)acrylamide]: the half-inhibitory concentration (IC50) at CDK13 and on CDK12 was 50 to 500 nM in each case.
Turning to `C=CC(=O)Nc1cc(N(C(=O)NCc2cccc(F)c2)[C@H]2CC[C@H](Nc3ccc(C#N)cn3)CC2)ccc1N1CCN(C)[C@@H](C)C1` [YJZ9177, N-(5-(1-((1r,4S)-4-((5-cyanopyridin-2-yl)amino)cyclohexyl)-3-(3-fluorobenzyl)ureido)-2-((S)-3,4-dimethylpiperazin-1-yl)phenyl)acrylamide], the IC50 at CDK13 is below 15 nM; at CDK12, 15 to 50 nM.
For `C=CC(=O)Nc1cc(N(C(=O)NCC2CC2)[C@H]2CC[C@H](Nc3ccc(C#N)cn3)CC2)ccc1N1CCN(C)[C@@H](C)C1` [YJZ1025, N-(5-(1-((1r,4S)-4-((5-cyanopyridin-2-yl)amino)cyclohexyl)-3-(cyclopropylmethyl)ureido)-2-((S)-3,4-dimethylpiperazin-1-yl)phenyl)acrylamide] the same measures were 50 to 500 nM and 50 to 500 nM.
As for `C=CC(=O)Nc1cc(N(C(=O)NCc2ccccc2)[C@H]2CC[C@H](Nc3ccc(C#N)cn3)CC2)ccc1N1CCN(C)CC1` [YJZ5114, N-(5-(3-benzyl-1-((1r,4r)-4-((5-cyanopyridin-2-yl)amino)cyclohexyl)ureido)-2-(4-methylpiperazin-1-yl)phenyl)acrylamide], the 50% inhibitory concentration (IC50) on CDK13 and on CDK12 was 50 to 500 nM throughout.
Regarding `C=CC(=O)Nc1cc(N(C(=O)NCC2COC2)[C@H]2CC[C@H](Nc3ccc(C#N)cn3)CC2)ccc1N1CCN(C)[C@@H](C)C1` [YJZ1031, N-(5-(1-((1r,4S)-4-((5-cyanopyridin-2-yl)amino)cyclohexyl)-3-(oxetanyl-3-ylmethyl)ureido)-2-((S)-3,4-dimethylpiperazin-1-yl)phenyl)acrylamide], the IC50 at CDK13 and at CDK12 was above 500 nM in each case.
As for `C=CC(=O)Nc1cc(N(C(=O)NCc2ccccc2)[C@H]2CC[C@H](Nc3ccc(C(F)(F)F)cn3)CC2)ccc1N1CCN(C)[C@@H](C)C1` [YJZ1066, N-(5-(3-benzyl-1-((1r,4S)-4-((5-(trifluoromethyl)pyridin-2-yl)amino)cyclohexyl)ureido)-2-((S)-3,4-dimethylpiperazin-1-yl)phenyl)acrylamide], the half-inhibitory concentration (IC50) was below 15 nM on CDK13 and 15 to 50 nM on CDK12.
Regarding `C=CC(=O)Nc1cc(N(C(=O)N[C@H](C)c2ccccc2)[C@H]2CC[C@H](Nc3ccc(C#N)cn3)CC2)ccc1N1CCN(C)[C@@H](C)C1` [YJZ9176, N-(5-(1-((1r,4R)-4-((5-cyanopyridin-2-yl)amino)cyclohexyl)-3-((R)-1-phenylethyl)ureido)-2-((S)-3,4-dimethylpiperazin-1-yl)phenyl)acrylamide], the half-maximal inhibitory concentration (IC50) at CDK13 is 50 to 500 nM; at CDK12, above 500 nM.
As for `C=CC(=O)Nc1cc(N(C(=O)NCc2cccnc2)[C@H]2CC[C@H](Nc3ccc(C#N)cn3)CC2)ccc1N1CCN(C)[C@@H](C)C1` [YJZ1061, N-(5-(1-((1r,4S)-4-((5-cyanopyridin-2-yl)amino)cyclohexyl)-3-(pyridin-3-ylmethyl)ureido)-2-((S)-3,4-dimethylpiperazin-1-yl)phenyl)acrylamide], the IC50 at CDK13 and at CDK12 was 50 to 500 nM each time.
With `C=CC(=O)Nc1cc(N(C(=O)N[C@@H](C)c2ccccc2)[C@H]2CC[C@H](Nc3ccc(C#N)cn3)CC2)ccc1N1CCN(C)[C@@H](C)C1` [YJZ9170, N-(5-(1-((1r,4S)-4-((5-cyanopyridin-2-yl)amino)cyclohexyl)-3-((S)-1-phenylethyl)ureido)-2-((S)-3,4-dimethylpiperazin-1-yl)phenyl)acrylamide], the IC50 on CDK13 and on CDK12 was 15 to 50 nM throughout.

(Values after patent US20250100994A1, “CDK12/13 COVALENT INHIBITORS OR PHARMACEUTICAL COMPOSITION THEREOF, AND USES THEREOF” (The Regents of the University of Michigan, priority 2023, published 2025).)
